Reference: patent publication US7332489B2, “Methods and compositions of novel triazine compounds” (Reddy US Therapeutics, Inc., priority 2003, dated 2008)
Where a name gives a salt, the structure may show the parent alone. Read-outs that look alike come from different tables or passages of the source.

Key:
TNF-α induced IL-6 = assay: TNF-α-induced IL-6 production determined by IL-6 ELISA; format: cell-based; conditions: for activity at 10 µM / inhibition at 10 µM: Homo sapiens; for % IL6 production compare to TNF stimulation of IL6 (100%), HAEC, IL6, @ 5 uM: TNF stimulated, compound 5 uM (bracketed value)
In short: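 Human aortic endothelial cells grown to ≥90% confluence, then treated with compounds and stimuli in serum-free medium with 0.2% albumin. Secreted IL-6 in collected media measured by sandwich ELISA (2 ug/ml capture, 200 ng/ml biotinylated detection antibody, streptavidin-HRP), read at 450 nm.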

[1] = tested on: Human aortic smooth muscle cells; assay: Smooth muscle cell proliferation assay / anti-proliferation assay (perlecan); conditions: for Proliferation Data (result in words): screens at 5 & 10 uM; for activity in anti-proliferation assay (Perlecan), in words: using the same activity scale used in Table 3
Protocol: Human aortic smooth muscle cells (Clonetics) were used. Cells were grown in basal medium containing 5% fetal bovine serum supplemented with growth factors, basic fibroblast growth factor, epidermal growth factor and insulin. […] The cells were then serum starved for 24 h to induce quiescence. Fresh growth medium containing no compound or 10 μM compound was then added and further incubated for 24 h. Cell number was determined by using a cell proliferation assay kit (Celltiter96 AQueous from Promega).

[2] = 24 h, Table 5, first part, class = % of control IL6 production, read-out: Inhibition of TNF-induced IL6 production
[3] = Homo sapiens, read-out: Activity (note 1), anti-proliferation assay (perlecan)
[4] = Homo sapiens, read-out: Avg IC-50, anti-proliferation assay (perlecan)
[5] = 24 h, Table 5, second part, column 1, class = % of control IL6 production, read-out: Inhibition of TNF-induced IL6, production

Compound: CCc1occc(=O)c1Oc1nc(Nc2ccc(OC)c(Cl)c2)nc(NC2CCCCCC2)n1
- Inflammation Data, cell death at 10 uM (TNF-α induced IL-6; 10 uM): 20%
- Proliferation Data (result in words) [1]: Not active at 5 & 10 uM

Compound: COc1ccc(Nc2nc(NC3CCCCCC3)nc(OC3CCCN(C(C)=O)C3)n2)cc1Cl (centres unmarked) [drawing 1597]
- Inflammation Data, inhibition at 10 uM (TNF-α induced IL-6; 10 uM): complete inhibition at 10 uM
- Proliferation Data (result in words) [1]: Not active at 5 & 10 uM

Compound: COc1ccc(Nc2nc(NC3CCCCCC3)nc(N(C)C3CCN(C)CC3)n2)cc1F [Compound 160, N^2-cycloheptyl-N^4-(3-fluoro-4-methoxyphenyl)-N^6-methyl-N^6-(1-methyl-piperidin-4-yl)-1,3,5-triazine-2,4,6-triamine, hydrogen chloride salt]
- activity at 10 µM (TNF-α induced IL-6; 24 h, read-out: % IL6 production compare to TNF stimulation of IL6 (100%), Compds tested @ 10 uM HAEC, IL6): 1%
- activity at 10 µM (TNF-α induced IL-6; 24 h, read-out: Inhibition of TNF-induced IL6 production): 0 to 25%
- IC50 ([1]; read-out: Activity (note 1), anti-proliferation assay (perlecan)): 3 to 7 µM
- IC50 ([1]; read-out: Avg IC-50, anti-proliferation assay (perlecan)): 4 to 5 µM

Compound: COc1ccc(Nc2nc(NC3CCCCCC3)nc(OC3CCN(C)CC3)n2)cc1Cl
- Inflammation Data, cell death at 10 uM (TNF-α induced IL-6; 10 uM): total cell death
- Proliferation Data, cell morphology (rounding, blunting, morphology change) [1]: rounding at 5 & 10 uM

Compound: CN1CCC(N(C)c2nc(Nc3ccc4ccccc4c3)nc(NC3CCCCCC3)n2)CC1 [N^2-cycloheptyl-N^4-methyl-N^4-(1-methyl-piperidin-4-yl)-N^6-naphthalen-2-yl-1,3,5-triazine-2,4,6-triamine]
- activity in anti-proliferation assay (Perlecan), in words [1]: high activity

Compound: COc1ccc(Nc2nc(NC3CCCCCC3)nc(N(C)C3CCN(C)CC3)n2)cc1F [N^2-cycloheptyl-N^4-(3-fluoro-4-methoxyphenyl)-N^6-methyl-N^6-(1-methyl-piperidin-4-yl)-1,3,5-triazine-2,4,6-triamine]
- activity in anti-proliferation assay (Perlecan), in words [1]: medium or moderate activity

Compound: CCN1CCC[C@@H]1CNc1nc(Nc2ccc(OC)c(F)c2)nc(NC2CCCCCC2)n1 [Compound 140, N^2-cycloheptyl-N^4-((R)-1-ethyl-pyrrolidin-2-ylmethyl)-N^6-(3-fluoro-4-methoxyphenyl)-1,3,5-triazine-2,4,6-triamine]
- % IL6 production compare to TNF stimulation of IL6 (100%), Compds tested @ 10 uM HAEC, IL6 (TNF-α induced IL-6; HAEC, 10 uM compound, TNF stimulation = 100%): 12.57%
- activity at 10 µM (TNF-α induced IL-6; [2]): 0 to 25%
- IC50 [1, 3]: 3 to 7 µM
- IC50 [1, 4]: 4 to 5 µM

Compound: COc1ccc(Nc2nc(NC3CCCCCC3)nc(N(C)C3CCN(C)CC3)n2)cc1F [Compound 167, N^2-cycloheptyl-N^4-(3-fluoro-4-methoxy-phenyl)-N^6-methyl-N^6-(1-methyl-piperidin-4-yl)-1,3,5-triazine-2,4,6-triamine maleate salt]
- % IL6 production compare to TNF stimulation of IL6 (100%), HAEC, IL6, @ 5 uM (TNF-α induced IL-6; HAEC, maleate salt): 25%
- IC50 ([1]; read-out: Activity (note 1), anti-proliferation assay (perlecan), maleate salt): > 7 µM

Compound: CCN1CCC[C@H]1CNc1nc(Nc2ccc(OC)c(F)c2)nc(NC2CCCCCC2)n1 [Compound 139, N^2-cycloheptyl-N^4-((S)-1-ethyl-pyrrolidin-2-ylmethyl)-N^6-(3-fluoro-4-methoxyphenyl)-1,3,5-triazine-2,4,6-triamine]
- activity at 10 µM (TNF-α induced IL-6; [2]): 0 to 25%
- IC50 [1, 3]: 3 to 7 µM
- IC50 [1, 4]: 4 to 5 µM

Compound: COc1ccc(Nc2nc(NC3CCCCCC3)nc(N(C)C3CCN(C)CC3)n2)cc1Br [Compound 123, N-(3-Bromo-4-methoxy-phenyl)-N′-cycloheptyl-N″-methyl-N″-(1-methyl-piperidin-4-yl)-[1,3,5]triazine-2,4,6-triamine]
- IC50 [1, 3]: > 7 µM

Compound: COc1ccc(Nc2nc(NC3CCCCCC3)nc(NC3CCN(Cc4ccccc4)CC3)n2)cc1F
- Inflammation Data, cell death at 5 uM (TNF-α induced IL-6; 5 uM): 25%
- Inflammation Data, cell death at 10 uM (TNF-α induced IL-6; 10 uM): total cell death
- Proliferation Data, cell morphology (rounding, blunting, morphology change) [1]: cell bluntingat 3 uM and rounding at 5 uM

Compound: COc1ccc(Nc2nc(NC3CCCCCC3)nc(OCC3CCCN3)n2)cc1Cl (centres unmarked) [drawing 1599]
- Proliferation Data (result in words) [1]: Not active at 5 & 10 uM

Compound: COc1ccc(Nc2nc(NC3CCCCCC3)nc(N3CCN(C)CC3)n2)cc1Cl
- Inflammation Data, activity in words at 5 uM (TNF-α induced IL-6; 5 uM): not active
- Inflammation Data, cell death at 5 uM (TNF-α induced IL-6; 5 uM): 25%
- Inflammation Data, cell death at 10 uM (TNF-α induced IL-6; 10 uM): total cell death
- Proliferation Data, cell morphology (rounding, blunting, morphology change) [1]: blunting androunding
- Proliferation Data (result in words) [1]: Did not pass 5 & 10 uMscreens

Compound: COc1ccc(Nc2nc(NC3CCCCCC3)nc(NC3CCN(Cc4ccccc4)CC3)n2)cc1Cl [drawing 1615]
- Inflammation Data, cell death at 5 uM (TNF-α induced IL-6; 5 uM): 20%
- Inflammation Data, cell death at 10 uM (TNF-α induced IL-6; 10 uM): > 50%
- Proliferation Data, cell morphology (rounding, blunting, morphology change) [1]: cell blunting at 1 uMand rounding at 5 uM

Compound: COc1ccc(Nc2nc(NC3CCCCCC3)nc(N(C)C3CCN(C)CC3)n2)cc1F [Compound 171, N-Cycloheptyl-N′-(3-fluoro-4-methoxy-phenyl)-N″-methyl-N″-(1-methyl-piperidin-4-yl)-[1,3,5]tri-azine-2,4,6-triamine]
- inhibition at 10 µM (TNF-α induced IL-6; 24 h, read-out: Inhibition of TNF-induced IL6 production, Table 7, first part): 85 to 100%
- inhibition at 10 µM (TNF-α induced IL-6; 24 h, read-out: Inhibition of TNF-induced IL6 production, Table 7, second part, column 1): 65 to 85%
- % IL6 production compare to TNF stimulation of IL6 (100%), Compds tested @ 10 μM HAEC, IL6 (TNF-α induced IL-6; Table 7, HAEC, 10 μM compound, TNF stimulation = 100%): 21%

Compound: COc1ccc(Nc2nc(NC3CCCCCC3)nc(NC3CCC(C)CC3)n2)cc1F (centres unmarked) [Compound 85, N^2-cycloheptyl-N^4-(3-fluoro-4-methoxyphenyl)-N^6-(4-methylcyclohexyl)-1,3,5-triazine-2,4,6-triamine]
- activity at 10 µM (TNF-α induced IL-6; [2]): 25 to 50%

Compound: c1ccc2cc(Nc3nc(NC4CCCCCC4)nc(N4CCOCC4)n3)ccc2c1 [Compound 174, N-Cycloheptyl-6-morpholin-4-yl-N′-naph-thalen-2-yl-[1,3,5]triazine-2,4-diamine]
- inhibition at 10 µM (TNF-α induced IL-6; 24 h, Table 7, first part, read-out: Inhibition of TNF-induced IL6 production): 85 to 100%

Compound: COc1ccc(Nc2nc(NCc3ccco3)nc(NC3CCCCCC3)n2)cc1F [Compound 91, N^2-cycloheptyl-N^4-(3-fluoro-4-methoxyphenyl)-N^6-(2-furanylmethyl)-1,3,5-triazine-2,4,6-triamine]
- activity at 10 µM (TNF-α induced IL-6; [2]): 25 to 50%

Compound: COc1ccc(Nc2nc(NCCCN3CCCC3=O)nc(NC3CCCCCC3)n2)cc1F [Compound 99, 1-[3-({4-(cycloheptylamino)-6-[(3-fluoro-4-methoxyphenyl)amino]-1,3,5-triazin-2-yl}amino)propyl]-2-pyrrolidinone]
- activity at 10 µM (TNF-α induced IL-6; [2]): 25 to 50%
- activity at 10 µM (TNF-α induced IL-6; [5]): 0 to 25%

Compound: CCN1CCCC1CNc1nc(Nc2cccc(NC(C)=O)c2)nc(NC2CCCCCC2)n1 (centres unmarked) [Compound 30, N-{3-[(4-(cycloheptylamino)-6-{[(1-ethyl-2-pyrrolidinyl)methyl]amino}-1,3,5-triazin-2-yl)-amino]phenyl}acetamide]
- activity at 10 µM (TNF-α induced IL-6; [2]): 0 to 25%
- activity at 10 µM (TNF-α induced IL-6; [5]): 0 to 25%

Compound: COc1ccc(Nc2nc(NC3CCCCCC3)nc(N3CCN(CC(=O)N4CCCC4)CC3)n2)cc1F [Compound 94, N^2-cycloheptyl-N^4-(3-fluoro-4-methoxyphenyl)-6-{4-[2-oxo-(1-pyrrolidinyl)ethyl]-1-piperazinyl}-1,3,5-triazine-2,4-diamine]
- activity at 10 µM (TNF-α induced IL-6; [2]): 25 to 50%
- activity at 10 µM (TNF-α induced IL-6; [5]): 0 to 25%

Compound: COc1ccc(Nc2nc(NC3CCCCCC3)nc(OC(C)C)n2)cc1Cl [drawing 1598]
- inhibition at 10 µM (TNF-α induced IL-6; 10 uM, read-out: Inflammation Data, inhibition at 10 uM): < 25%

Compound: COc1ccc(Nc2nc(NC3CCCCCC3)nc(NC(C)(C)C)n2)cc1F [Compound 77, N^2-(tert-butyl)-N^4-cycloheptyl-N^6-(3-fluoro-4-methoxyphenyl)-1,3,5-triazine-2,4,6-triamine]
- activity at 10 µM (TNF-α induced IL-6; [2]): 0 to 25%

Compound: COc1ccc(Nc2nc(NC3CCCCCC3)nc(N(C)C3CCN(C)CC3)n2)cc1F [Compound 169, N^2-cycloheptyl-N^4-(3-fluoro-4-methoxy-phenyl)-N^6-methyl-N^6-(1-methyl-piperidin-4-yl)-1,3,5-triazine-2,4,6-triamine succinate salt]
- % IL6 production compare to TNF stimulation of IL6 (100%), HAEC, IL6, @ 5 uM (TNF-α induced IL-6; HAEC, succinate salt): 45%

Compound: COc1ccc(Nc2nc(NC3CCCCCC3)nc(N3CCCC3CO)n2)cc1Cl (centres unmarked)
- Inflammation Data (result in words) (TNF-α induced IL-6; concentration not given): Not Active
- Proliferation Data, cell morphology (rounding, blunting, morphology change) [1]: rounding
- Proliferation Data (result in words) [1]: Did not pass 5 & 10 uMscreens

Compound: CCOC(=O)N1CCN(c2nc(NCC3CCCN3CC)nc(Nc3ccc(OC)c(F)c3)n2)CC1 (centres unmarked) [Compound 64, Ethyl 4-{4-{[(1-ethyl-2-pyrrolidinyl)methyl]amino}-N^6-[(3-fluoro-4-methoxyphenyl)amino]-1,3,5-triazin-2-yl}-1-piperazinecarboxylate]
- activity at 10 µM (TNF-α induced IL-6; [2]): 25 to 50%

Compound: CCN1CCCC1CNc1nc(NCCN(C)C)nc(Nc2ccc(OC)c(F)c2)n1 (centres unmarked) [Compound 68, N^2-[2-(dimethylamino)ethyl]-N^4-[(1-ethyl-2-pyrrolidinyl)methyl]-N^6-(3-fluoro-4-methoxyphenyl)-1,3,5-triazine-2,4,6-triamine]
- activity at 10 µM (TNF-α induced IL-6; [2]): 0 to 25%
- activity at 10 µM (TNF-α induced IL-6; [5]): 25 to 50%

Compound: COc1ccc(Nc2nc(NCc3ccccc3)nc(NC3CCCCCC3)n2)cc1F [Compound 78, N^2-benzyl-N^4-cycloheptyl-N^6-(3-fluoro-4-methoxyphenyl)-1,3,5-triazine-2,4,6-triamine]
- activity at 10 µM (TNF-α induced IL-6; [2]): 25 to 50%
